Usually EC50 stands for the concentration at which the effect is half-maximal. Read a low EC50 as a more potent agent.

This test deals with hTREM2 (Homo sapiens, UniProt Q9NZC2). Put plainly: TREM2 activity by cellular Syk phosphorylation (AlphaScreen/AlphaLISA) in TREM2/DAP12-HEK cells, used for Examples 1-305. Type of test: cell-based. Set-up: expressed in transfected cells. The settings on record: HEK293 Cells. The source says:
In vitro Measurement of Triggering Receptor Expressed on Myeloid Cells 2 activity using cellular phosphorylation of Spleen Tyrosine Kinase (“Syk”) Assays used for Examples 1-305
Pharmacological measurements of TREM2 signaling through DAP12 were made with TREM2 and DAP12 overexpressing HEK293 cells stable cell lines that had been single-cell cloned (“TREM2/DAP12-HEK”). The readout of the TREM2 signaling utilized Perkin Elmer AlphaScreen/AlphaLISA technology monitoring the phosphorylation levels of the Syk kinase. TREM2/DAP12-HEK cell lines were cultured in DMEM-F12 (Corning 10-092-CM) supplemented with 1X Penicillin/Streptomycin (Corning 30-002-CI), 1X GlutaMAX (Gibco 35050-061), and 10% Fetal Bovine Serum (Life Technologies 10099) referred to as “HEK Culture Medium”. Suspensions of TREM2/DAP12-HEK cells were prepared in HEK Culture Medium and dispensed into 384-well poly-D-lysine coated microplates (Corning 354661) at a density of 20,000 cells/well using a Multidrop Combi peristaltic microplate dispenser (Thermo), 25 μL volume of cell suspension/well. Plates containing cells were then incubated for 20 hours in a humidified cell culture incubator at 37° C. with 5% CO2 (Thermo). After incubation, culture medium was removed from all wells of each microplate and replaced with 20 μL of “Assay Buffer” comprised of DMEM-F12 (Corning 10-092-CM) supplemented with 1X Penicillin/Streptomycin (Corning 30-002-CI) and 0.1% Pluronic F-68 Polyol (MP Biomedical 092750049) using a Bravo 384-well pipette-based liquid handling system (Agilent). Assay Buffer contained diluted test articles (in 1% final DMSO concentration for compounds) or 100 nM anti-human/mouse TREM2 antibody (R&D Systems MAB17291) as a positive control, or 100 nM or rat IgG2B isotype Ab as a negative control (R&D Systems MAB0061). The plates were incubated with test articles and controls for 45 minutes at room temperature and then the medium was aspirated/removed from each well of the plates. A Multidrop Combi peristaltic liquid handler (Thermo) was used to dispense 15 μL/well of “Cell Lysis Immunoassay Buffer”. The Cell Lysis Immunoassay Buffer contained M-PER Mammalian Protein Extraction Reagent (Pierce/ThermoFisher 78505), 1X Halt Phosphatase Inhibitor Cocktail (ThermoFisher #78427), 0.1875 nM anti-phospho-Syk (Tyr525/526) (C87C1) rabbit mAb (Cell Signaling Technologies catalog #2710), and 1.5 nM biotinylated Mouse anti-human Syk (4D10) antibody (BD Biosciences, catalog #624008). Plates were incubated for 1 hour at room temperature after the addition of the Cell Lysis Immunoassay Buffer. The Multidrop Combi liquid handler was used to dispense 15 μL of AlphaScreen Acceptor Bead Solution containing 7.5 μg/mL anti-rabbit IgG (Fc specific) AlphaLISA Acceptor Beads (Perkin Elmer AL104R) in 1X Immunoassay buffer (Perkin Elmer AL000F) to each well of the microplates. The plates were incubated for 2 hours at room temperature. Following the incubation with the AlphaLISA Acceptor Bead Solution, a Multidrop Combi liquid handler (Thermo) was used to dispense 15 μL of AlphaScreen Donor Bead Solution containing 30 μg/mL of AlphaScreen Streptavidin Donor beads (Perkin Elmer 6760002B) in 1X Immunoassay buffer (Perkin Elmer AL000F) to each well of the microplates. Microplates were incubated for 2 hours protected from light sources as the AlphaScreen reagents are light sensitive. Once the final incubation was completed, an AlphaScreen signal was acquired from the donor and acceptor beads using an Envision high throughput multi-modal microplate reader (Perkin Elmer) calibrated to the plate type with the AlphaScreen mirror and filter-set in 384-well mode, 680 nanometer excitation wavelength. The total measurement time per well was 550 milliseconds with a 180 millisecond excitation time. […]
On the technique in general: Bead proximity is the source of the signal in Alpha formats.

Sequence of hTREM2 (Q9NZC2 19-230): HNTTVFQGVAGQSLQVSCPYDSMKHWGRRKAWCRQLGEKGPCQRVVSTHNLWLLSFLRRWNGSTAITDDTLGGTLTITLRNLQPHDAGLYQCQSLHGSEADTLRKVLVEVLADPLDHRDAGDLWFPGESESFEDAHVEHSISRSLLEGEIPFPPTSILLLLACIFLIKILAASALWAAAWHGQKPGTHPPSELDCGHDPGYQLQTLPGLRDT
Sequence of hTREM2 (O43914 22-113 partner): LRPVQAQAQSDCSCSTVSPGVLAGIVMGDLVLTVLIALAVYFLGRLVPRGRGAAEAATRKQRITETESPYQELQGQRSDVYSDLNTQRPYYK

On to `Cc1cc([C@@H]2C[C@H](c3nc(-c4ccc(Cl)cc4F)c4ncc(C)nc4n3)CCO2)ccn1` (single isomer, unassigned) [Example 172], for which the EC50 lay in the range of 50 to 500 nM and the “hTREM2 Emax” value is “++++ (Emax>250)”. For `Cc1cc([C@H]2CN(c3nc4nc(C)c(C)nc4c([C@H]4C[C@H](C(F)(F)F)C4)n3)CCO2)cnn1` [Example 51, 6,7-dimethyl-2-((2S)-2-(6-methyl-4-pyridazinyl)-4-morpholinyl)-4-(trans-3-(trifluoromethyl)cyclobutyl)pteridine], the EC50 is not above 50 nM; the “hTREM2 Emax” value was “+++ (Emax>150 and ≤250)”.

As for `Cc1nc2nc([C@@H]3CCO[C@H](c4cnn(C5CC5)c4)C3)nc(-c3ccc(C(F)(F)F)nc3)c2nc1C` [Example 301, 2-((2S,4R)-2-(1-cyclopropyl-1H-pyrazol-4-yl)tetrahydro-2H-pyran-4-yl)-6,7-dimethyl-4-(6-(trifluoromethyl)pyridin-3-yl)pteridine], the EC50 was not above 50 nM; the “hTREM2 Emax” value is “+++ (Emax>150 and ≤250)”. In the case of `Cc1nc2cc([C@@H]3CCO[C@@H](c4cnn(C)c4)C3)nc(-c3ccc(Cl)cc3F)c2nc1C` [Example 245, 5-(4-chloro-2-fluorophenyl)-2,3-dimethyl-7-((2R,4R)-2-(1-methyl-1H-pyrazol-4-yl)tetrahydro-2H-pyran-4-yl)pyrido[3,4-b]pyrazine], the EC50 fell in the range of 3000 to 100000 nM and the “hTREM2 Emax” value was “++++ (Emax>250)”.

Compound `Cc1nc2nc(N3CCO[C@H](c4cnn(C)c4)C3)nc(N3CCC[C@@H](F)C3)c2nc1C` [Example 262, (R)-4-(4-((R)-3-fluoropiperidin-1-yl)-6,7-dimethylpteridin-2-yl)-2-(1-methyl-1H-pyrazol-4-yl)morpholine] gave an EC50 of 3000 to 100000 nM. On the same count and under the same terms, the result for `CN1Cc2c(cc(N3CCO[C@@H](c4cnn(C)c4)C3)nc2[C@H]2C[C@@H](C(F)(F)F)C2)C1=O` [Example 117, 2-methyl-6-((2S)-2-(1-methyl-1H-pyrazol-4-yl)-4-morpholinyl)-4-(cis-3-(trifluoromethyl)cyclobutyl)-2,3-dihydro-1H-pyrrolo[3,4-c]pyridin-1-one] reads 3000 to 100000 nM. In the case of `Cc1nc2nc([C@@H]3CCO[C@H](c4cnn(C)c4)C3)cc(-c3ccc(F)cc3F)c2nc1C` [Example 255, 8-(2,4-difluorophenyl)-2,3-dimethyl-6-((2S,4R)-2-(1-methyl-1H-pyrazol-4-yl)tetrahydro-2H-pyran-4-yl)pyrido[2,3-b]pyrazine], the EC50 fell in the range of 500 to 3000 nM; the “hTREM2 Emax” value was “++ (Emax>100 and ≤150)”. As for `Cc1cc([C@@H]2CN(c3nc4nc(C)cnc4c([C@H]4C[C@@H](C(F)(F)F)C4)n3)CCO2)cnn1` (single isomer, unassigned) [Example 14], the EC50 was in the range of 50 to 500 nM; the “hTREM2 Emax” value was “++ (Emax>100 and ≤150)”. Regarding `Cc1cc([C@H]2CN(c3nc4nc(C)ccc4c([C@H]4C[C@H](C(F)(F)F)C4)n3)CCO2)ccn1` [Example 99, 7-methyl-2-((2S)-2-(2-methyl-4-pyridinyl)-4-morpholinyl)-4-(trans-3-(trifluoromethyl)cyclobutyl)pyrido[2,3-d]pyrimidine], the EC50 was not above 50 nM; the “hTREM2 Emax” value is “+ (Emax>45 and ≤100)”.

As to `Cc1nc2nc(N3CCO[C@@H](c4cnn(C)c4)C3)nc(C3CCCC3)c2nc1C` [Example 140, 4-cyclopentyl-6,7-dimethyl-2-((2S)-2-(1-methyl-1H-pyrazol-4-yl)-4-morpholinyl)pteridine], the EC50 lay in the range of 50 to 500 nM; the “hTREM2 Emax” value was “++ (Emax>100 and ≤150)”. For `Cc1ccc2c(-c3ccc(F)cc3F)nc(N3CCO[C@@H](c4cnn(C)c4)C3)nc2n1` [Example 91, 4-(2,4-difluorophenyl)-7-methyl-2-((2S)-2-(1-methyl-1H-pyrazol-4-yl)-4-morpholinyl)pyrido[2,3-d]pyrimidine], the EC50 fell in the range of 50 to 500 nM; the “hTREM2 Emax” value was “+++ (Emax>150 and ≤250)”. In the case of `Cc1nc2nc([C@@H]3CCO[C@@H](c4cnn(C)c4)C3)cc(-c3ccc(Cl)cc3F)c2nc1C` [Example 249, 8-(4-chloro-2-fluorophenyl)-2,3-dimethyl-6-((2R,4R)-2-(1-methyl-1H-pyrazol-4-yl)tetrahydro-2H-pyran-4-yl)pyrido[2,3-b]pyrazine], the EC50 was in the range of 500 to 3000 nM; the “hTREM2 Emax” value was “+++ (Emax>150 and ≤250)”. Take `Cc1ccc2c(-c3ccc(Cl)cc3F)cc(N3CCO[C@@H](c4cnn(C)c4)C3)nc2n1` [Example 156, 4-(4-chloro-2-fluorophenyl)-7-methyl-2-((2S)-2-(1-methyl-1H-pyrazol-4-yl)-4-morpholinyl)-1,8-naphthyridine]: the EC50 was in the range of 50 to 500 nM; the “hTREM2 Emax” value was “+++ (Emax>150 and ≤250)”. For the compound `Cc1nc2nc([C@@H]3CCO[C@H](c4cnn(C)c4)C3)nc(-c3ccc(F)cc3F)c2nc1C` [Example 256, 4-(2,4-difluorophenyl)-6,7-dimethyl-2-((2S,4R)-2-(1-methyl-1H-pyrazol-4-yl)tetrahydro-2H-pyran-4-yl)pteridine], the EC50 fell in the range of 500 to 3000 nM; the “hTREM2 Emax” value is “++ (Emax>100 and ≤150)”. Regarding `Cc1ccc2c(-c3ccc(Cl)cc3F)nc([C@H]3CCO[C@@H](c4cnn(C5CC5)c4)C3)nc2n1` (single isomer, unassigned) [Example 197], the EC50 was not above 50 nM and the “hTREM2 Emax” value was “++++ (Emax>250)”.

For `Cc1nc2nc(N3CCO[C@@H](c4cnn(C)c4)C3)nc(-c3ccc(Cl)cn3)c2nc1C` [Example 291, (S)-4-(4-(5-chloropyridin-2-yl)-6,7-dimethylpteridin-2-yl)-2-(1-methyl-1H-pyrazol-4-yl)morpholine], the EC50 is 50 to 500 nM and the “hTREM2 Emax” value is “++++ (Emax>250)”.

Turning to `Cc1nc2nc(N3CCO[C@@H](c4cnn(C)c4)C3)nc(C3CCC4(CC3)CC4)c2nc1C` [Example 137, 6,7-dimethyl-2-((2S)-2-(1-methyl-1H-pyrazol-4-yl)-4-morpholinyl)-4-(spiro[2.5]octan-6-yl)pteridine], the EC50 was not above 50 nM; the “hTREM2 Emax” value is “+++ (Emax>150 and ≤250)”. For the compound `Cc1nc2nc(N3CCO[C@H]([C@@H]4CCOC4)C3)nc(-c3ccc(F)cc3F)c2nc1C` (single isomer, unassigned) [Example 35], the EC50 lay in the range of 50 to 500 nM; the “hTREM2 Emax” value was “+++ (Emax>150 and ≤250)”. With `Cn1cc([C@H]2CN(c3nc(-c4ccc(Cl)cc4F)c4ccc(Cl)nc4n3)CCO2)cn1` [Example 283, (S)-4-(7-chloro-4-(4-chloro-2-fluorophenyl)pyrido[2,3-d]pyrimidin-2-yl)-2-(1-methyl-1H-pyrazol-4-yl)morpholine], the EC50 is 500 to 3000 nM; the “hTREM2 Emax” value is “++ (Emax>100 and ≤150)”.

Take `Cc1nc2nc(N3CCO[C@@H](c4cnn(C)c4)C3)nc(C3CCC(F)(F)CC3)c2nc1C` [Example 133, 4-(4,4-difluorocyclohexyl)-6,7-dimethyl-2-((2S)-2-(1-methyl-1H-pyrazol-4-yl)-4-morpholinyl)pteridine]: the EC50 was not above 50 nM; the “hTREM2 Emax” value is “+++ (Emax>150 and ≤250)”.

As for `Cc1cnc2c(-c3ccc(F)cc3F)nc(N3CCO[C@H]([C@@H]4CCOC4)C3)nc2n1` [Example 253, (R)-4-(4-(2,4-difluorophenyl)-7-methylpteridin-2-yl)-2-((R)-tetrahydrofuran-3-yl)morpholine], the EC50 fell in the range of 3000 to 100000 nM; the “hTREM2 Emax” value was “+++ (Emax>150 and ≤250)”. Take `Cc1ccc2c(-c3ccc(Cl)cc3F)nc([C@H]3CCO[C@@H](c4cnn(C)c4)C3)nc2n1` [Example 287, 4-(4-chloro-2-fluorophenyl)-7-methyl-2-((2R,4S)-2-(1-methyl-1H-pyrazol-4-yl)tetrahydro-2H-pyran-4-yl)pyrido[2,3-d] pyrimidine]: the EC50 fell in the range of 500 to 3000 nM; the “hTREM2 Emax” value is “+++ (Emax>150 and ≤250)”.

The values are drawn from US11884675B2, “Heterocyclic compounds as triggering receptor expressed on myeloid cells 2 agonists and methods of use” (AMGEN INC., priority 2020, dated 2024).
